The record followed here is patent publication US12201640B2, “19-nor C3,3-disubstituted C21-n-pyrazolyl steroids and methods of use thereof” (Sage Therapeutics, Inc., priority 2013, dated 2025).

The target of one test is T1, GABAA receptor α1β2γ2 (Homo sapiens, UniProt P14867+P47870).
T1 construct: expressed in transfected cells
The test can be described thus: Patch clamp electrophysiology, Qpatch in Ltk cells. It is filed as cell-based. The following applies: 10 μM test article, GABA EC20 2 μM, read-out: GABA (α1β2γ2) Qpatch in Ltk, % efficacy at 10 μM. As for the experimental part: (§1) Patch Clamp Electrophysiology of Recombinant α1β2γ2 and α4β3δ GABAA Receptors
(§2) Cellular electrophysiology is used to measure the pharmacological properties of our GABAA receptor modulators in heterologous cell systems. Each compound is tested for its ability to affect GABA mediated currents at a submaximal agonist dose (GABA EC20=2 μM). LTK cells are stably transfected with the α1β2γ2 subunits of the GABA receptor and CHO cells are transiently transfected with the α4β3δ subunits via the Lipofecatamine method. Cells were passaged at a confluence of about 50-80% and then seeded onto 35 mm sterile culture dishes containing 2 ml culture complete medium without antibiotics or antimycotics. Confluent clusters of cells are electrically coupled (Pritchett et al., Science, 1988, 242, 1306-1308.). Because responses in distant cells are not adequately voltage clamped and because of uncertainties about the extent of coupling (Verdoorn et al., Neuron 1990, 4, 919-928.), cells were cultivated at a density that enables the recording of single cells (without visible connections to other cells).
(§3) Whole cell currents were measured with HEKA EPC-10 amplifiers using PatchMaster software or by using the high throughput QPatch platform (Sophion). Bath solution for all experiments contained (in mM): NaCl 137 mM, KCl 4 mM, CaCl2 1.8 mM, MgCl2 1 mM, HEPES 10 mM, D-Glucose 10 mM, pH (NaOH) 7.4. In some cases 0.005% cremophor was also added. Intracellular (pipette) solution contained: KCl 130 mM, MgCl2 1 mM, Mg-ATP 5 mM, HEPES 10 mM, EGTA 5 mM, pH 7.2. During experiments, cells and solutions were maintained at room temperature (19° C.-30° C.). For manual patch clamp recordings, cell culture dishes were placed on the dish holder of the microscope and continuously perfused (1 ml/min) with bath solution. After formation of a Gigaohm seal between the patch electrodes and the cell (pipette resistance range: 2.5 MΩ-6.0 MΩ; seal resistance range: >1 GΩ) the cell membrane across the pipette tip was ruptured to assure electrical access to the cell interior (whole-cell patch-configuration). For experiments using the QPatch system, cells were transferred as suspension to the QPatch system in the bath solution and automated whole cell recordings were performed.
(§4) Cells were voltage clamped at a holding potential of −80 mV. For the analysis of test articles, GABA receptors were stimulated by 2 μM GABA after sequential pre-incubation of increasing concentrations of the test article. Pre-incubation duration was 30 s and the duration of the GABA stimulus was 2 s. Test articles were dissolved in DMSO to form stock solutions (10 mM). Test articles were diluted to 0.01, 0.1, 1, and 10 μM in bath solution. All concentrations of test articles were tested on each cell. The relative percentage potentiation was defined as the peak amplitude in response to GABA EC20 in the presence of the test article divided by the peak amplitude in response to GABA EC20 alone, multiplied by 100.
In general terms: The patch-clamp technique gives a direct electrical read-out from membranes.

For a further test, the target named is T2, GABAA receptor α4β3δ (Homo sapiens, UniProt P28472+P48169).
T2 construct: expressed in transfected cells; host or cells: CHO cells (transient, lipofection)
The test can be described thus: Patch clamp electrophysiology, manual patch in CHO cells. It is filed as cell-based. The following applies: 10 μM test article, GABA EC20 2 μM, read-out: GABA (α4β3δ) Manual patch in CHO, % efficacy at 10 μM. As for the experimental part: as §1, §2, §3, §4

The next test has as its system PTZ-treated mice. Put plainly: Acute PTZ (pentylenetetrazol-induced seizure) assay in mice. It is filed as in vivo, mouse. The following applies: PO, latency to tonic seizures. Here is the method:
The anticonvulsant effect of test compounds were assessed in the pentylenetetazol-induced seizure assay in mice similar to methods described in Giardina & Gasior (2009) Curr Protoc Pharmacol., Chapter 5. Male CD-1 mice were housed in groups of five under controlled conditions (temperature of 22±2° C. and 12:12 light-dark cycle, lights on at 8:00 am) and water and food were available ad libitum. The mice were housed for 1 week prior to behavioral testing, at which time they weighed 25-35 g. Pentylenetetrazol (PTZ, Sigma) was dissolved in sterile 0.9% saline at a concentration of 12 mg/mL concentration for subcutaneous administration. Test compounds were formulated and administered via oral gavage or intraperitoneal injection at a predetermined time-point (typically 30 or 60 minutes) prior to PTZ injection. All solutions were made fresh and were given in a volume of 10 ml/kg body weight.
Mice were acclimated to the test room for at least 30 min before compound administration. Mice were randomized into at least four test groups (vehicle and at least three doses of the test compound) with 10 mice per group. […] Following the drug pretreatment time the mice were injected s.c. with PTZ (120 mg/kg). Immediately following the PTZ injection, mice were individually placed into observation chambers (25×15×15 cm) and a three-channel timer was started. Each mouse was continuously observed for 30 min and the following behaviors were recorded by observers blinded to the treatments: 1) latency to clonic convulsions that persist for 3 sec and followed by an absence of righting reflex 2) latency to tonic convulsions, characterized by the rigid extension of all four limbs that exceeded a 90 degree angle with the body 3) latency to death 4) number of clonic and tonic convulsions. Data are presented as mean±S.E.M and one-way analysis of variance with Dunnett's or Bonferroni's post-hoc test was used to detect significant differences in latency and number between the vehicle and dose group. p values<0.05 were regarded as statistically significant.

Another test has as its system male Sprague Dawley rats. The test can be described thus: Loss of righting reflex in rats. It is filed as in vivo. The following applies: Rat IV, 5 mpk. Here is the method: Loss of Righting Reflex in Rats
The plasma pharmacokinetics and a qualitative assessment of sedation were obtained in male
Sprague Dawley rats according to the following procedure. Rats were dosed by intravenous bolus dose (60 seconds) via the foot dorsal vein at doses ranging from 5 to 15 mg/kg in an appropriate vehicle. In order to assess sedation, rats were gently restrained by hand to a lateral position for dose administration. […] If the animal was unable to return to an upright position, the time was recorded as the onset of loss of righting reflex (LRR). […] Sluggish or incomplete righting twice consecutively within a 30 second interval qualifies as a loss of righting reflex. After onset of LRR, animals were assessed every 5 minutes in the same manner. Recovery of righting reflex is defined as the ability of a rat to right itself completely within 20 seconds of being placed in dorsal recumbency. The duration of LRR is defined as the time interval between LRR and the return of righting reflex.

T1 sequence (P14867 28-456): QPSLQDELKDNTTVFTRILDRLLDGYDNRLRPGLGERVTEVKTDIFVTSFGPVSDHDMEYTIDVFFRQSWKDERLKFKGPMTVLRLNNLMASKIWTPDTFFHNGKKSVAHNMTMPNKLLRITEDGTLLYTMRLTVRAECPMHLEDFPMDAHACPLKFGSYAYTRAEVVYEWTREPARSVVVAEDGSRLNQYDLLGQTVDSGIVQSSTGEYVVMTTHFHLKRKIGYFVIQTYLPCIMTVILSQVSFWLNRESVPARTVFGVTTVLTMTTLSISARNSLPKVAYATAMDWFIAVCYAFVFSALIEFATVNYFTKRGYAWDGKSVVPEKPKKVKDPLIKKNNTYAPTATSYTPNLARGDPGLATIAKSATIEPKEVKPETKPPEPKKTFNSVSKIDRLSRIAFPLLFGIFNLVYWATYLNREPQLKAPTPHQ
T1 sequence (P47870 25-512 limits assumed): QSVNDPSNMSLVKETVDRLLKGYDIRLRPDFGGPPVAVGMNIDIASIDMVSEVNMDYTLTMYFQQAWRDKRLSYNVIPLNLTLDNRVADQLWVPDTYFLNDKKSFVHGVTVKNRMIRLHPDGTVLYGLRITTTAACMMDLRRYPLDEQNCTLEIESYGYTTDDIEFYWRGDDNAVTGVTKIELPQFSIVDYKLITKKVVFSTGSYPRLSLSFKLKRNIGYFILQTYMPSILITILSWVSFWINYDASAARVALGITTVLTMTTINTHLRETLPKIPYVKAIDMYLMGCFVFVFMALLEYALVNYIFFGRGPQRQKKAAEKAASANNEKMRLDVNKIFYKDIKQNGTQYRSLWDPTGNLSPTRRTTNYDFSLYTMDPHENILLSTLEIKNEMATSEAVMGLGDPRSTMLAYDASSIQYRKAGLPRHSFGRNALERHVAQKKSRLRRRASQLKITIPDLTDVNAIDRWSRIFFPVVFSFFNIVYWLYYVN
T1 sequence (P18507 40-475 partner): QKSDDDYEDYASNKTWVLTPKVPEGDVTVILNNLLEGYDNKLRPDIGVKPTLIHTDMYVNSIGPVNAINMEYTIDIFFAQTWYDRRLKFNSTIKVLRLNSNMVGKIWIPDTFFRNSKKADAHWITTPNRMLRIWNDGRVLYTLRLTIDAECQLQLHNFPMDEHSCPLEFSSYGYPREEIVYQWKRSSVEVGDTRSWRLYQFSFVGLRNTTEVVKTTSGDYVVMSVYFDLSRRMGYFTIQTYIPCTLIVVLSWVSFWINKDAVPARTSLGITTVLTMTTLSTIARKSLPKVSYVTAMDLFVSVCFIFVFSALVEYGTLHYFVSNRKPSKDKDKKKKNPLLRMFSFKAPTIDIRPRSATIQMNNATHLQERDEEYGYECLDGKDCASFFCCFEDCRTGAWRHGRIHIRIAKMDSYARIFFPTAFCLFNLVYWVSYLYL
T2 sequence (P48169 36-554): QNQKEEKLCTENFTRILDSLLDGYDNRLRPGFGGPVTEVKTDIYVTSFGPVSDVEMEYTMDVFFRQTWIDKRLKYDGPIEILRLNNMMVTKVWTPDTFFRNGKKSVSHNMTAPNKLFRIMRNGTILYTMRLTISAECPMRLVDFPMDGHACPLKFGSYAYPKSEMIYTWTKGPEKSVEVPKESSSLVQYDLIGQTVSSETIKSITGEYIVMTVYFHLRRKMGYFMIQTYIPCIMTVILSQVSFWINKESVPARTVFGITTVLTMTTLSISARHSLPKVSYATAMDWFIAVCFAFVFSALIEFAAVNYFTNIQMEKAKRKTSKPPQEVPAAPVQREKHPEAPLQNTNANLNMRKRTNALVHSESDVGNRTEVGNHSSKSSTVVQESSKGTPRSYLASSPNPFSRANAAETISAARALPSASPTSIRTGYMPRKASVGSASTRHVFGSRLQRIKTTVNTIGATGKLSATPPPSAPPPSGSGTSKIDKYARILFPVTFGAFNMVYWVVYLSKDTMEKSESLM
T2 sequence (P28472 26-473): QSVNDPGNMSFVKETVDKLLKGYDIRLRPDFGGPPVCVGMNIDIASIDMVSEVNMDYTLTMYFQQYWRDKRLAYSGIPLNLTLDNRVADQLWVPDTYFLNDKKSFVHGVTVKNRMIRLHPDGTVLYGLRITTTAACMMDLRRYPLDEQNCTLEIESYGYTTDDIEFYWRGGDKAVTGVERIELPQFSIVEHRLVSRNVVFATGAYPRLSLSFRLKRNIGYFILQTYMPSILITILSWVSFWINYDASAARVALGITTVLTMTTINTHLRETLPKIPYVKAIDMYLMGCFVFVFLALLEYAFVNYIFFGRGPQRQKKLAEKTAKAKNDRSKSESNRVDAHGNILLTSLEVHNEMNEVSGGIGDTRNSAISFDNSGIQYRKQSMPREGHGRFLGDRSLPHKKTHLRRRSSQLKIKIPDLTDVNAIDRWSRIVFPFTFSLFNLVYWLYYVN
T2 sequence (O14764 25-452 partner): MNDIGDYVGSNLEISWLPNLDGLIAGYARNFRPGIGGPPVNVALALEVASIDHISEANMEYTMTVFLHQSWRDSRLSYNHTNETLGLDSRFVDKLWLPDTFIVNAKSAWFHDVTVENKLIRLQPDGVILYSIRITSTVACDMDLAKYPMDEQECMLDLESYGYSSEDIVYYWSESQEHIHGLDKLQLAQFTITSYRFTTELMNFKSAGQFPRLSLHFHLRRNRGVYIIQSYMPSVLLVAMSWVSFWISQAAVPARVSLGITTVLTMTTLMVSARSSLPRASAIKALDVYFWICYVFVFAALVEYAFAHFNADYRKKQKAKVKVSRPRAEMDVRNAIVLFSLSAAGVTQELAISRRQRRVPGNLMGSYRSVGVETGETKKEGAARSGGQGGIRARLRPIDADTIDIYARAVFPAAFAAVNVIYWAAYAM

Consider `C[C@@]1(O)CC[C@H]2[C@H](CC[C@@H]3[C@@H]2CC[C@]2(C)[C@@H](C(=O)Cn4cc(S(C)(=O)=O)cn4)CC[C@@H]32)C1` [SA-17], for which the Emax at 10 µM on GABAA receptor α1β2γ2 and on GABAA receptor α4β3δ was 100 to 500% throughout. In addition, the “Anticonvulsive Effect Dose (minimal effective anticonvulsant dose)” value with PTZ-treated mice is listed as “A (PO) (<3 mpk)”.
Consider `C[C@@]1(O)CC[C@H]2[C@H](CC[C@@H]3[C@@H]2CC[C@]2(C)[C@@H](C(=O)Cn4ccc(C#N)n4)CC[C@@H]32)C1` [SA-22], for which the results for the Emax at 10 µM at GABAA receptor α1β2γ2 and on GABAA receptor α4β3δ were greater than 500% and 100 to 500%, respectively. Further, the “Duration of Rat LRR” value with male Sprague Dawley rats is “B (15-60 min)”. Also, in the test with PTZ-treated mice, the “Anticonvulsive Effect Dose (minimal effective anticonvulsant dose)” value is recorded as “A (PO) (<3 mpk)”.
